In article PMC3688941, “Characterization of a Chitin-Binding Protein from Bacillus thuringiensis HD-1” (PLoS ONE, 2013):

Tests used:
Ha-Chitinase = assay: fluorometric chitinase assay; assay type: biochemical, Helicoverpa armigera; details: 50 mM sodium phosphate pH 7.0, 30 °C, 20 min; without Bt-CBP21; footnote gives substrate as 50 µM
From the text: fluorometric chitinase assay on Ha-Chitinase

Bt-Chitinase = tested on: T1, Bt-Chitinase; assay: fluorometric chitinase assay; assay type: biochemical, Bacillus thuringiensis serovar kurstaki; details: 50 mM sodium phosphate pH 7.0, 30 °C, 20 min; without Bt-CBP21; footnote gives substrate as 50 µM
T1 construct: EC 3.2.1.14
From the text: fluorometric chitinase assay on Bt-Chitinase

`CC(=O)N[C@H]1[C@H](Oc2ccc3c(C)cc(=O)oc3c2)O[C@H](CO)[C@@H](O[C@@H]2O[C@H](CO)[C@@H](O)[C@H](O)[C@H]2NC(C)=O)[C@@H]1O` [4-MU-(GlcNAc)2] showed a Km (Ha-Chitinase) of 1400 nM and a Km (Bt-Chitinase) of 30 µM.
